Measured values from ChEMBL document CHEMBL3124799, “Discovery of 1,3,4-oxidiazole scaffold compounds as inhibitors of superoxide dismutase expression” (Bioorg Med Chem Lett, 2014).
pIC50: −log10 of the molar value. The source made the active and inactive calls. The rule behind the calls is not given here.

Experiments:
Fibroblast [1] = assay: Relative expression of human SOD1 expressed in mouse fibroblasts at 10 uM after 48 hrs by ELISA
Fibroblast [2] = assay: Inhibition of human SOD1 expressed in mouse fibroblasts after 48 hrs by ELISA relative to control; assay type: functional, cell-based; settings: for pIC50: Mus musculus, Fibroblast, 48 h, read-out: IC50
Fibroblast [3] = assay: Inhibition of human SOD1 expressed in mouse fibroblasts at 10 uM after 48 hrs by ELISA relative to control; assay type: functional
[4] = Drug uptake in serum of mouse expressing SOD1 G93A mutant at 10 mg/kg, ip after 4 hrs; assay type: ADME, organism-based; parameters: dose 10 mg/kg, route intraperitoneal; settings: read-out: Drug uptake
[5] = Drug uptake in brain of mouse expressing SOD1 G93A mutant at 10 mg/kg, ip after 2 hrs; assay type: ADME, organism-based; parameters: dose 10 mg/kg, route intraperitoneal; settings: read-out: Drug uptake
[6] = Drug uptake in spinal cord of mouse expressing SOD1 G93A mutant at 10 mg/kg, ip after 2 hrs; assay type: ADME, organism-based; parameters: dose 10 mg/kg, route intraperitoneal; settings: read-out: Drug uptake
[7] = Drug uptake in serum of mouse expressing SOD1 G93A mutant at 10 mg/kg, ip after 2 hrs; assay type: ADME, organism-based; parameters: dose 10 mg/kg, route intraperitoneal; settings: read-out: Drug uptake
[8] = Drug uptake in brain of nontransgenic mouse at 10 mg/kg, ip after 4 hrs
Brain = assay: Drug uptake in brain of nontransgenic mouse at 10 mg/kg, ip after 24 hrs; settings: in vivo
[9] = Drug uptake in serum of nontransgenic mouse at 10 mg/kg, ip after 24 hrs
[10] = Drug uptake in spinal cord of nontransgenic mouse at 10 mg/kg, ip after 4 hrs
[11] = Drug uptake in spinal cord of nontransgenic mouse at 10 mg/kg, ip after 24 hrs
Mus musculus [12] = assay: Reduction in SOD1 G93A mutant expression in cerebral cortex of mouse at 20 mg/kg, ip administered every alternate day for 26 days; assay type: functional, organism-based; parameters: dose 20 mg/kg
Mus musculus [13] = assay: Reduction in SOD1 G93A mutant expression in brain stem of mouse at 20 mg/kg, ip administered every alternate day for 26 days; assay type: functional, organism-based; parameters: dose 20 mg/kg
Mus musculus [14] = assay: Reduction in SOD1 G93A mutant expression in cerebellum of mouse at 20 mg/kg, ip administered every alternate day for 26 days; assay type: functional, organism-based; parameters: dose 20 mg/kg
Mus musculus [15] = assay: Reduction in SOD1 G93A mutant expression in spinal cord of mouse assessed as at 20 mg/kg, ip administered every alternate day for 26 days; assay type: functional, organism-based; parameters: dose 20 mg/kg
[16] = Drug uptake in serum of mouse expressing SOD1 G93A mutant at 20 mg/kg, ip after 24 hrs; assay type: ADME, organism-based; parameters: dose 20 mg/kg, route intraperitoneal; settings: read-out: Drug uptake
[17] = Drug uptake in spinal cord of mouse expressing SOD1 G93A mutant at 20 mg/kg, ip after 24 hrs; assay type: ADME, organism-based; parameters: dose 20 mg/kg, route intraperitoneal; settings: read-out: Drug uptake
[18] = Drug uptake in brain of mouse expressing SOD1 G93A mutant at 20 mg/kg, ip after 24 hrs; assay type: ADME, organism-based; parameters: dose 20 mg/kg, route intraperitoneal; settings: read-out: Drug uptake
[19] = Drug uptake in serum of mouse expressing SOD1 G93A mutant at 20 mg/kg, ip after 1 hr; assay type: ADME, organism-based; parameters: dose 20 mg/kg, route intraperitoneal; settings: read-out: Drug uptake
[20] = Drug uptake in spinal cord of mouse expressing SOD1 G93A mutant at 20 mg/kg, ip after 1 hr; assay type: ADME, organism-based; parameters: dose 20 mg/kg, route intraperitoneal; settings: read-out: Drug uptake
[21] = Drug uptake in brain of mouse expressing SOD1 G93A mutant at 20 mg/kg, ip after 1 hr; assay type: ADME, organism-based; parameters: dose 20 mg/kg, route intraperitoneal; settings: read-out: Drug uptake

Q: Which relative SOD1 expression at 10 µM (Fibroblast [1]) does the source give for `FC(F)(F)c1ccc(CSc2nnc(-c3ccncc3)o2)cc1` here?
A: 157%

Q: With `O=C(CCl)c1cc(Br)c(Br)s1` as the compound, how does the pIC50 (Fibroblast [2]) read?
A: 6.19

Q: For `Fc1ccc(CSc2nnc(-c3ccncc3)o2)cc1`, which relative SOD1 expression at 10 µM (Fibroblast [1]) is on record?
A: 86%

Q: With `c1cc(CSc2nnc(-c3ccncc3)o2)ccn1` as the compound, how does the inhibition (Fibroblast [3]) read?
A: inactive

Q: For `c1ccc(CSc2nnc(-c3ccncc3)o2)cc1`, which relative SOD1 expression at 10 µM (Fibroblast [1]) is on record?
A: 133%

Q: For `Brc1ccc(CSc2nnc(-c3ccncc3)o2)cc1`, which relative SOD1 expression at 10 µM (Fibroblast [1]) is on record?
A: 103%

Q: With `O=C1NC(=O)C(c2cn(CCCO)c3ncccc23)=C1c1cnccn1` as the compound, how does the pIC50 (Fibroblast [2]) read?
A: 5.00

Q: With `Brc1cccc(CSc2nnc(-c3ccncc3)o2)c1` as the compound, how does the relative SOD1 expression at 10 µM (Fibroblast [1]) read?
A: 91%

Q: With `COc1ccc(CSc2nnc(-c3ccncc3)o2)cc1` as the compound, how does the inhibition (Fibroblast [2]) read?
A: Dose-dependent effect

Q: And the concentration at 4 h [4]?
A: 334 nM

Q: And the concentration at 2 h [5]?
A: 29 nM

Q: What about the concentration at 2 h [6] of the same compound?
A: 57 nM

Q: What about the concentration at 2 h [7] of the same compound?
A: 153 nM

Q: And the concentration at 4 h [8]?
A: 47 nM

Q: What about the Drug uptake (Brain) of the same compound?
A: Not Active

Q: What about the concentration at 24 h [9] of the same compound?
A: 123 nM

Q: And the concentration at 4 h [10]?
A: 162 nM

Q: What about the concentration at 24 h [11] of the same compound?
A: 113 nM

Q: What about the relative SOD1 expression at 10 µM (Fibroblast [1]) of the same compound?
A: 47%

Q: For `Cc1ccc(CSc2nnc(-c3ccncc3)o2)cc1`, which relative SOD1 expression at 10 µM (Fibroblast [1]) is on record?
A: 126%

Q: For `Clc1cccc(CSc2nnc(-c3ccncc3)o2)c1`, which relative SOD1 expression at 10 µM (Fibroblast [1]) is on record?
A: 96%

Q: With `Clc1ccc(CSc2nnc(-c3ccncc3)o2)cc1` as the compound, how does the relative SOD1 expression at 10 µM (Fibroblast [1]) read?
A: 123%

Q: With `O=[N+]([O-])c1ccc(CSc2nnc(-c3ccncc3)o2)cc1` as the compound, how does the relative SOD1 expression at 10 µM (Fibroblast [1]) read?
A: 102%

Q: With `O=C1Cc2c([nH]c3ccc(Br)cc23)-c2ccccc2N1` [KENPAULLONE] as the compound, how does the pIC50 (Fibroblast [2]) read?
A: 5.00

Q: With `CCCCc1c(-c2ccc(O)cc2)[nH]c2nccnc12` [ALOISINE A] as the compound, how does the IC50 (Fibroblast [2]; fibroblast) read?
A: Not Active

Q: For `Brc1ccc(CSc2nnc(-c3cccnc3)o2)cc1`, which relative SOD1 expression at 10 µM (Fibroblast [1]) is on record?
A: 68.6%

Q: For `COc1cccc(CSc2nnc(-c3ccncc3)o2)c1`, which inhibition (Fibroblast [2]) is on record?
A: Dose-dependent effect

Q: What about the relative SOD1 expression at 10 µM (Fibroblast [1]) of the same compound?
A: 50%

Q: With `O=[N+]([O-])c1cccc(CSc2nnc(-c3ccncc3)o2)c1` as the compound, how does the relative SOD1 expression at 10 µM (Fibroblast [1]) read?
A: 117%

Q: Which inhibition (Fibroblast [3]) does the source give for `c1cncc(CSc2nnc(-c3ccncc3)o2)c1` here?
A: inactive

Q: Which relative SOD1 expression at 10 µM (Fibroblast [1]) does the source give for `Ic1ccc(CSc2nnc(-c3ccncc3)o2)cc1` here?
A: 69%

Q: Which inhibition (Fibroblast [2]) does the source give for `Ic1cccc(CSc2nnc(-c3ccncc3)o2)c1` here?
A: Dose-dependent effect

Q: What about the pIC50 (Fibroblast [2]) of the same compound?
A: 6.20

Q: And the inhibition (Mus musculus [12])?
A: Active

Q: And the inhibition (Mus musculus [13])?
A: Active

Q: What about the inhibition (Mus musculus [14]) of the same compound?
A: Active

Q: What about the inhibition (Mus musculus [15]) of the same compound?
A: Active

Q: What about the concentration at 24 h [16] of the same compound?
A: 73 nM

Q: What about the concentration at 24 h [17] of the same compound?
A: 855 nM

Q: What about the concentration at 24 h [18] of the same compound?
A: 77 nM

Q: And the concentration at 1 h [19]?
A: 672 nM

Q: And the concentration at 1 h [20]?
A: 4000 nM

Q: And the concentration at 1 h [21]?
A: 944 nM

Q: With `Cn1cc(C2=C(c3ccc(Cl)cc3Cl)C(=O)NC2=O)c2ccccc21` [SB-216763] as the compound, how does the pIC50 (Fibroblast [2]) read?
A: 5.52
